Measurements from patent publication US9145405B2, “Oxadiazole compound and preparation method thereof, pharmaceutical composition and use thereof” (SHANGHAI JIAO TONG UNIVERSITY, priority 2011, dated 2015).
≈ marks a conversion by molar mass, not a printed value. Where two headings read alike, the source gives them in different places.

Assays:
Cox_B3 virus = test: Anti-Cox_B3 test: inhibition of cytopathic effect (CPE) in infected Vero cells, Reed-Muench; format: cell-based; settings: for IC50: read-out: IC50 (half-inhibitory concentration for viruses)
Text: The present examples verifies experimental results of anti-Cox_B3 of the compounds 1-137of the present invention, Pleconaril, 3-[3,5-dimethyl-4-[5-(3-methy-1,2-oxazolyl)propoxy]phenyl]-5-(trifluonomethyl) -1,2,4-oxadiazole is used as positive control.

Vero cells = test: Toxicity (half toxic concentration) in the anti-Cox_B3 test on Vero cells; format: cell-based
[1] = Cox_B3 virus in Vero cells, CPE, Reed-Muench method

Structure (SMILES) | IC50 (Cox_B3 virus; [1]) [µg/mL] | TC50 (half of the toxic concentration) (Vero cells; Vero cells, Cox_B3) [µg/mL] | IC50 (half-inhibitory concentration for viruses) (Cox_B3 virus; [1]) [µg/mL] | TC50 (half of the toxic concentration) (Vero cells) [µg/mL] | IC50 (Cox_B3 virus; Vero) [µg/mL]
Cc1cc(-c2noc(C(F)(F)F)n2)cc(C)c1OCCCOc1ncc(-c2noc(C(F)(F)F)n2)cc1F [Compound 122, 2-[3-[2,6-dimethyl-4-[5-(trifluoromethyl)-1,2,4-oxadiazole-3-yl]phenoxyl]propoxy]-3-fluoro-5-[5-(trifluoromethyl)-1,2,4-oxadiazole-3-yl]-pyridine] | 0.041 (≈ 0.0749 µM) | 34.87 | – | – | –
Cc1cc(-c2noc(C(F)(F)F)n2)cc(C)c1OCCOc1ccc(-c2noc(C(F)(F)F)n2)cc1F [Compound 123] | – | – | 0.043 | 35.88 | –
Cc1cc(-c2noc(C(F)(F)F)n2)cc(C)c1OCCCOc1ccc(-c2noc(C(F)(F)F)n2)cc1F [Compound 124] | – | – | 0.037 | 32.58 | –
Cc1cc(-c2noc(C(F)(F)F)n2)cc(C)c1OCCCOC1CCC(C)C(C)C1 (stereo not drawn) [Compound 129, 3-[4-[3-[3,4-dimethylcyclohexyloxy]propoxy]-3,5-dimethylphenyl]-5-(trifluoromethyl)-1,2,4-oxadiazole] | – | 35.46 | – | – | 0.025 (≈ 0.0586 µM)
Cc1cc(-c2noc(C(F)(F)F)n2)cc(C)c1OCCCOc1cnc(C#N)cn1 [Compound 131, 2-cyano-5-[3-[2,6-dimethyl-4-[5-(trifluoromethyl)-1,2,4-oxadiazole-3-yl]phenoxyl]propoxy]pyrazine] | – | 36.87 | – | – | 0.035 (≈ 0.0835 µM)
Cc1cc(-c2noc(C(F)(F)F)n2)cc(C)c1OCCCOc1ncc(C#N)cn1 [Compound 132, 2-[3-[2,6-dimethyl-4-[5-(trifluoromethyl)-1,2,4-oxadiazole-3-yl]phenoxyl]propoxy]-5-cyano-pyrimidine] | 0.04 (≈ 0.0954 µM) | 39.23 | – | – | –
Cc1cc(-c2noc(C(F)(F)F)n2)cc(C)c1OCCCOc1ccc(C#N)nn1 [Compound 133, 3-cyano-6-[3-[2,6-dimethyl-4-[5-(trifluoromethyl)-1,2,4-oxadiazole-3-yl]phenoxyl]propoxy]pyridazine] | 0.041 (≈ 0.0978 µM) | 38.78 | – | – | –
Cc1cc(CCCOc2c(C)cc(-c3noc(C(F)(F)F)n3)cc2C)on1 [Pleconaril, 3-[3,5-dimethyl-4-[5-(3-methy-1,2-oxazolyl)propoxy]phenyl]-5-(trifluonomethyl) -1,2,4-oxadiazole, reference compound] | – | 17.25 | – | – | 0.04 (≈ 0.105 µM)

Second part, led by results:

IC50 (Cox_B3 virus; [1]) [µg/mL] | Structure (SMILES) | TC50 (half of the toxic concentration) (Vero cells; Vero cells, Cox_B3) [µg/mL] | IC50 (half-inhibitory concentration for viruses) (Cox_B3 virus; [1]) [µg/mL] | TC50 (half of the toxic concentration) (Vero cells) [µg/mL] | IC50 (Cox_B3 virus; Vero) [µg/mL]
0.045 (≈ 0.103 µM) | Cc1cc(-c2noc(C(F)(F)F)n2)cc(C)c1OCCCOc1ccc([N+](=O)[O-])cn1 [Compound 134, 2-[3-[2,6-dimethyl-4-[5-(trifluoromethyl)-1,2,4-oxadiazole-3-yl]phenoxyl]propoxy]-5-nitropyridine] | 40.25 | – | – | –
0.038 (≈ 0.0716 µM) | Cc1cc(-c2noc(C(F)(F)F)n2)cc(C)c1OCCCOc1cnc(-c2noc(C(F)(F)F)n2)cn1 [Compound 135, 2-[5-(trifluoromethyl)-1,2,4-oxadiazole-3-yl]-5-[3-[2,6-dimethyl-4-[5-(trifluoromethyl)-1,2,4-oxadiazole-3-yl]phenoxyl]propoxy]pyrazine] | 42.18 | – | – | –
0.04 (≈ 0.0754 µM) | Cc1cc(-c2noc(C(F)(F)F)n2)cc(C)c1OCCCOc1ncc(-c2noc(C(F)(F)F)n2)cn1 [Compound 136, 2-[3-[2,6-dimethyl-4-[5-(trifluoromethyl)-1,2,4-oxadiazole-3-yl]phenoxyl]propoxy]-5-[5-(trifluoromethyl)-1,2,4-oxadiazole-3-yl]-pyrimidine] | 41.23 | – | – | –
0.039 (≈ 0.0735 µM) | Cc1cc(-c2noc(C(F)(F)F)n2)cc(C)c1OCCCOc1ccc(-c2noc(C(F)(F)F)n2)nn1 [Compound 137, 3-[5-(trifluoromethyl)-1,2,4-oxadiazole-3-yl]-6-[3-[2,6-dimethyl-4-[5-(trifluoromethyl)-1,2,4-oxadiazole-3-yl]phenoxyl]propoxy]pyridazine] | 41.65 | – | – | –
